Data reported in patent publication US20090069230A1, “GDNF-DERIVED PEPTIDES” (The Research Foundation of State University of New York, priority 2007, published 2009).

Test system: C6 glial cells
Assay: Ca2+ mobilization in GDNF peptide-treated C6 glial cells (Calcium Crimson-AM fluorescence)
Type: cell-based
Conditions: for change in Ca2+ mobilization relative to control samples: external Ca2+ containing buffer, FIG. 6; for change in Ca2+ mobilization relative to control samples / change in fluorescence relative to the control sample: peptide 1 7.0 μM, peptide 2 2.3 μM, peptide 3 0.8 μM; for change in fluorescence relative to the control sample: external Ca2+ free buffer, FIG. 5
Description: We evaluated the ability of the GDNF peptides to activate G-protein associated transmembrane receptors. C6 glial cells were incubated with GDNF peptides, either singly or in combination, and calcium mobilization was monitored as a index of receptor activation.
GDNF peptides were custom synthesized via automated solid-phase methods using FMOC chemistry, HPLC purified, and characterized at the Small Peptide Synthesis Resource of the KECK Facility at Yale University. C6 glial cells were cultured to 80% confluency in the presence of GDNF peptides and loaded with the Ca^2+-sensitive fluorescent indicator dye, Calcium Crimson-AM (5 μM dye in Me2SO) at 37° C. for 20 min. Approximately 10^3 cells were then transferred into a quartz cuvette and the change in intracellular fluorescence was monitored in real time using an ISI Fluorescence spectrophotometer with an excitation wavelength of 590 nm. Emissions were monitored at 615 nm. An increase in fluorescence units was indicative of a rise in internal calcium.
C6 glial cells were cultured as above and incubated in increasing concentrations (0.8 μM; 1.6 μM; 2.4 μM; 3.2 μM and 4.0 μM) of GDNF-derived peptide (FPLPA (SEQ ID NO:4)). Fluorescence was measured according to the method in Example 3.
C6 glial cells were cultured as above and incubated in increasing concentrations (7.0 μM; 14 μM; 21 μM; 28 μM and 35 μM) of GDNF-derived peptide (PPEAPAEDRSL (SEQ ID NO:5)). Fluorescence was measured according to the method in Example 3.
C6 glial cells were cultured as above except that no Ca^2+ was present in the media. Cells were incubated with GDNF-derived peptides according to the experimental design indicated in Table 2 and the combinations in FIG. 5. Fluorescence was measured according to the method in Example 3.
C6 glial cells were cultured according to the method in Example 3. Cells were incubated with GDNF-derived peptides according to the experimental design indicated in Table 2 and the combinations in FIG. 6. Fluorescence was measured according to the method in Example 3.

Substance	change in Ca2+ mobilization relative to control samples	change in fluorescence relative to the control sample	Ca2+ mobilization (fluorescence), dose response (FPLPA at 0.8, 1.6, 2.4, 3.2 and 4.0 μM, FIG. 3)	Ca2+ mobilization (fluorescence), dose response (PPEAPAEDRSL at 7.0, 14, 21, 28 and 35 μM, FIG. 4)
ERNRQAAAANPENSRGK (listed as Homo sapiens) [GDNF-derived peptide, 17-mer]	decrease in Ca^2+ mobilization	moderate increases	–	–
FPLPA (listed as Homo sapiens) [GDNF-derived peptide, 5-mer]	decrease in Ca^2+ mobilization	moderate increases	dose-dependent increase in Ca^2+ mobilization at peptide concentrations up to 3.2 μM, followed by a decrease at 4.0 μM	–
PPEAPAEDRSL (listed as Homo sapiens) [GDNF-derived peptide, 11-mer]	increase in Ca^2+ mobilization	moderate increases	–	dose-dependent increase in Ca^2+ mobilization
